In PubChem BioAssay (NCI):
Where “and” joins values, the source holds several entries; their conditions need not be identical. Equal values may be shown once.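 Five compound concentrations were applied to cells in 96-well plates for 48 hours; endpoints were derived by simple linear interpolation of the resulting dose-response curve. GI50 = concentration required for 50% inhibition of growth. TGI: total growth inhibition.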

Key:
Experiment in all cases: DTP human tumour cell line panel, 48 h
BT-549 breast = system: BT-549 breast
OVCAR-5 ovarian = system: OVCAR-5 ovarian
RPMI-8226 leukemia = system: RPMI-8226 leukemia
LOX IMVI melanoma = system: LOX IMVI melanoma
SW-620 colon = system: SW-620 colon
UACC-257 melanoma = system: UACC-257 melanoma
SN12C renal = system: SN12C renal
CCRF-CEM leukemia = system: CCRF-CEM leukemia
OVCAR-4 ovarian = system: OVCAR-4 ovarian
MCF7 breast = system: MCF7 breast

| SMILES | TGI (BT-549 breast) | TGI (OVCAR-5 ovarian) | GI50 (RPMI-8226 leukemia) | TGI (RPMI-8226 leukemia) | TGI (LOX IMVI melanoma) | TGI (SW-620 colon) | GI50 (UACC-257 melanoma) | TGI (UACC-257 melanoma) | GI50 (SN12C renal) | TGI (SN12C renal) | GI50 (CCRF-CEM leukemia) | TGI (CCRF-CEM leukemia) | TGI (OVCAR-4 ovarian) | TGI (MCF7 breast) | GI50 (LOX IMVI melanoma) | GI50 (SW-620 colon) | GI50 (BT-549 breast) | GI50 (OVCAR-5 ovarian) | GI50 (OVCAR-4 ovarian) | GI50 (MCF7 breast) |
| --- | --- | --- | --- | --- | --- | --- | --- | --- | --- | --- | --- | --- | --- | --- | --- | --- | --- | --- | --- | --- |
| Nc1ccc2c(c1)CN1C(=O)c3ccccc3C1=N2 | > 125 µM | > 112 µM | 34.1 µM | > 125 µM | > 125 µM | > 125 µM | 67.5 µM | > 125 µM | 44.8 µM | > 125 µM | 37.6 µM | > 90 µM | > 125 µM | > 78.9 µM |  |  |  |  |  |  |
| COc1cc(C2c3cc4c(cc3[C@@H](Nc3cccc(O)c3)C3COC(=O)[C@H]23)OCO4)cc(OC)c1O (stereo not given in full) | 6.7 µM | 22.7 µM | 0.45 µM | 9.31 µM | 7.3 µM | 41 µM | 0.925 µM | 16.9 µM | 0.688 µM | 6.82 µM | 0.237 µM | 0.973 µM and 7.66 µM | 37.6 µM | 28.4 µM | 0.535 µM | 0.77 µM |  |  |  |  |
| C=C(CC1(CC(=C)c2ccc(C(=O)O)cc2)C(=O)N(C)C(=O)N(C)C1=O)c1ccc(C(=O)O)cc1 | > 100 µM | > 100 µM | 21.8 µM | > 100 µM | > 100 µM | > 100 µM | 34.9 µM | > 100 µM | 59.2 µM | > 100 µM | 65.2 µM | > 100 µM | > 100 µM | > 100 µM | 80.8 µM | > 100 µM | > 100 µM | 43.6 µM | 23.2 µM | 73.9 µM |
| COc1cc(OC)cc(N2CCN(C(=O)Nc3nc4cc(F)ccc4nc3OC)CC2)c1 | 2.49 µM and 2.33 µM and 0.498 µM | > 100 µM | < 0.0182 µM and 0.0386 µM and 0.0416 µM | 13.8 µM and 20 µM | 17.6 µM and 13.6 µM | > 100 µM | 20.1 µM and 12.7 µM | 73.4 µM and 56.8 µM | 0.067 µM and 0.0615 µM and 0.0576 µM | 51.1 µM and 24.5 µM | 0.0899 µM and 0.0338 µM and 0.0345 µM | > 100 µM | 84.8 µM and > 100 µM | 24.7 µM and 22.8 µM | 0.0506 µM and 0.0658 µM and 0.0352 µM | 0.0283 µM and 0.0372 µM and 0.0395 µM | 0.0345 µM and 0.0458 µM and 0.0335 µM | 0.0557 µM and 0.158 µM and 0.0528 µM |  | 0.0239 µM and 0.0265 µM and 0.0142 µM |
| CCCOc1c2cc(COC3OC(CO)C(O)C(O)C3O)cc1Cc1cc(COC3OC(CO)C(O)C(O)C3O)cc(c1OCCC)Cc1cc(COC3OC(CO)C(O)C(O)C3O)cc(c1OCCC)Cc1cc(COC3OC(CO)C(O)C(O)C3O)cc(c1OCCC)C2 (stereo not given) | > 100 µM and 36.4 µM | > 100 µM and 55.2 µM |  | > 100 µM | > 100 µM and 31.4 µM | > 100 µM and 36.2 µM | 67.1 µM and > 100 µM and 33.6 µM | > 100 µM | 96.6 µM and > 100 µM and 18.5 µM | > 100 µM and 43.5 µM | 7.52 µM and 17.6 µM | > 100 µM and 36.5 µM | > 100 µM and 76.6 µM | > 100 µM and 44.3 µM | > 100 µM and 58.6 µM and 17.6 µM | 99.9 µM and > 100 µM and 15.6 µM | > 100 µM and 72.8 µM and 21.8 µM | 41.8 µM and > 100 µM and 22 µM |  | 53.7 µM and > 100 µM and 19.4 µM |
| O=[N+]([O-])O.[NH-]C1CCCCC1[NH-].[NH-]C1CCCCC1[NH-].[NH-]C1CCCCC1[NH-].[OH-].[OH-].[OH-].[Pt+4].[Pt+4].[Pt+4] (stereo not given) | > 62.5 µM | 93.8 µM | 0.0311 µM | > 24.2 µM | > 85.7 µM | > 100 µM | 1.27 µM | 20.4 µM | 0.126 µM | 26.7 µM | 0.193 µM | 19.2 µM | > 100 µM | > 45.6 µM | 0.467 µM |  | 3.02 µM | 2.03 µM |  | 0.157 µM |
| O=C(NO)C(O)C(O)C(O)C(O)CO (stereo not given) | > 100 µM | > 100 µM | > 100 µM | > 100 µM | > 100 µM | > 100 µM | > 100 µM | > 100 µM | > 100 µM | > 100 µM | 50.6 µM | > 100 µM | > 100 µM | > 100 µM | > 100 µM and 94.8 µM | > 100 µM | > 100 µM | > 100 µM | > 100 µM | > 100 µM and 46.4 µM |
| CC(=O)N[C@@H]1CCC[C@H](C(=O)Nc2cc(-c3cnn4c3CC(C)(C)C4)c(Cl)cn2)C1 | 0.0499 µM | > 100 µM | 0.0158 µM | 0.0703 µM | > 100 µM | > 100 µM | 0.0227 µM | 12 µM | 0.0103 µM | > 100 µM | < 0.01 µM | 0.315 µM | 25.4 µM | 40.6 µM | < 0.01 µM | < 0.01 µM | < 0.01 µM | < 0.01 µM | 0.0235 µM | < 0.01 µM |
| CC(=O)Nc1ccc(-n2cnc3cc(-c4ccc(OCCN5CCCCC5)cc4)ccc32)cc1 | 9.77 µM | 14.6 µM | 5.16 µM | 12.7 µM | 8.88 µM | 2.79 µM | 5.9 µM | 12 µM | 4.48 µM | 9.72 µM | 6.57 µM | 23.9 µM | 11.7 µM | 13.6 µM | 4.5 µM | 0.973 µM | 4.88 µM | 6.22 µM | 4.85 µM | 4.16 µM |
| CC(C)(C)NCCC(O)c1cc(C(F)(F)F)nc2c(C(F)(F)F)cccc12 (stereo not given) | 23.2 µM | 29.3 µM |  | 17.1 µM | 5.31 µM | > 52.6 µM |  | 26.4 µM |  | 15.5 µM |  | 30.5 µM | 27.1 µM | 27.6 µM |  |  |  |  |  |  |
| O=C(CC(C(=O)O)N1CCOCC1)c1ccccc1 (stereo not given) | 33.5 µM | 47.3 µM |  | 42.1 µM | 33.6 µM | 44.1 µM |  | 27.2 µM |  | 35.7 µM |  | 15 µM | 43.2 µM | 31.2 µM |  |  |  |  |  |  |
| CC(C)(C)c1ccc(S(=O)(=O)N[C@H]2CC[C@H]3[C@@H]4CCc5cc(O)ccc5[C@H]4CC[C@]23C)cc1 | 3.32 µM | 4.2 µM | 1.88 µM | 4.51 µM | 3.17 µM | 11.8 µM | 2.45 µM | 6.78 µM | 1.76 µM | 3.55 µM | 2.63 µM | 7.79 µM | 10.2 µM | 3.57 µM | 1.77 µM | 3.18 µM | 1.75 µM | 2.08 µM | 2.91 µM | 1.74 µM |
